# According to ChEMBL document CHEMBL3425422, “Discovery of a potent microtubule-targeting agent: Synthesis and biological evaluation of water-soluble amino acid prodrug of combretastatin A-4 derivatives” (Bioorg Med Chem Lett, 2015):
# Active and inactive are the calls of the source. The calls are words filed in the database; no cut-off is given here.
# Tests used:
# [1] = system: SK-OV-3; assay: Induction of cell cycle arrest in human SKOV3 cells assessed as accumulation at S phase at 500 nM after 24 hrs by FCM analysis (reference value: 24.09%); format: functional
# [2] = system: SK-OV-3; assay: Induction of cell cycle arrest in human SKOV3 cells assessed as accumulation at G2/M phase after 24 hrs by FCM analysis; format: functional, cell-based
# [3] = system: SK-OV-3; assay: Induction of cell cycle arrest in human SKOV3 cells assessed as accumulation at G2/M phase at 100 nM after 24 hrs by FCM analysis (reference value: 15.30%); format: functional
# [4] = system: SK-OV-3; assay: Induction of cell cycle arrest in human SKOV3 cells assessed as accumulation at G2/M phase at 500 nM after 24 hrs by FCM analysis (reference value: 15.30%); format: functional
# [5] = system: SK-OV-3; assay: Antimitotic effect in human SKOV3 cells assessed as increase in cyclin B level by Western blot analysis; format: functional, cell-based
# [6] = system: SK-OV-3; assay: Antimitotic effect in human SKOV3 cells assessed as decrease in cdc2 level by Western blot analysis; format: functional, cell-based
# [7] = system: SK-OV-3; assay: Antimitotic effect in human SKOV3 cells assessed as decrease in p-cdc2 level by Western blot analysis; format: functional, cell-based
# [8] = system: SK-OV-3; assay: Antimitotic effect in human SKOV3 cells assessed as decrease in cdc25 level by Western blot analysis; format: functional, cell-based
# [9] = system: SK-OV-3; assay: Induction of MAPK phosphorylation in human SKOV3 cells at 500 nM after 24 hrs by Western blot analysis; format: functional, cell-based
# [10] = system: SK-OV-3; assay: Induction of apoptosis in human SKOV3 cells assessed as decrease in pro-caspase-3 protein level at 100 to 1000 nM after 48 hrs by Western blot analysis; format: functional, cell-based
# [11] = system: SK-OV-3; assay: Induction of apoptosis in human SKOV3 cells assessed as decrease in pro-caspase-9 protein level at 100 to 1000 nM after 48 hrs by Western blot analysis; format: functional, cell-based
# [12] = system: SK-OV-3; assay: Induction of apoptosis in human SKOV3 cells assessed as PARP cleavage at 100 to 1000 nM after 48 hrs by Western blot analysis; format: functional, cell-based
# [13] = system: SK-OV-3; assay: Induction of apoptosis in human SKOV3 cells assessed as decrease in Bcl-2/Bax ratio at 100 to 1000 nM after 48 hrs by Western blot analysis; format: functional, cell-based
# [14] = system: HepG2; assay: Cytotoxicity against human HepG2 cells assessed as cell viability after 48 hrs by MTT assay; format: functional, cell-based; conditions: HepG2, 48 h
# [15] = Cytotoxicity against human H460 cells assessed as cell viability after 48 hrs by MTT assay; format: functional, cell-based; conditions: NCI-H460, 48 h
# [16] = Cytotoxicity against human SKOV3 cells assessed as cell viability after 48 hrs by MTT assay; format: functional, cell-based; conditions: SK-OV-3, 48 h
# [17] = Aqueous solubility of the compound; format: physicochemical; conditions: water (aqueous)
# [18] = system: Serum; assay: Stability of the compound in Wistar rat serum assessed as prodrug degradation after 6 hrs; format: ADME, cell-free
# [19] = system: Serum; assay: Stability of the compound in Wistar rat serum assessed as prodrug degradation after 24 hrs; format: ADME, cell-free
# [20] = Antitumor activity against human H460 cells xenografted in BALB/C mouse assessed as inhibition ratio at 20 mg/kg, ip qd relative to control; format: functional; conditions: NCI-H460, ip, route intraperitoneal
# [21] = system: NCI-H460; assay: Antitumor activity against human H460 cells xenografted in BALB/C mouse assessed as mouse survival at 20 mg/kg, ip qd relative to control; format: functional, organism-based; parameters: dose 20 mg/kg
# [22] = Antitumor activity against human SKOV3 cells xenografted in BALB/C mouse assessed as inhibition ratio at 10 mg/kg, iv qd relative to control; format: functional; conditions: SK-OV-3
# [23] = system: SK-OV-3; assay: Antitumor activity against human SKOV3 cells xenografted in BALB/C mouse assessed as mouse survival at 10 mg/kg, iv qd relative to control; format: functional, organism-based; parameters: dose 10 mg/kg
# [24] = system: Rattus norvegicus; assay: Prodrug conversion in rat assessed as 4-(4-ethoxyphenyl)-5-(3,4,5-trimethoxyphenyl)thiazol-2-amine in plasma measured as half life at 10 mg/kg, iv; format: ADME, organism-based; parameters: dose 10 mg/kg, route intravenous; conditions: in vivo
# [25] = target: T1, Tubulin (Homo sapiens) (UniProt P68371+Q9H4B7+P0DPH7+P68366+Q13509+Q71U36+P04350+Q3ZCM7+P07437+P68363+Q9BQE3+Q6PEY2+Q13885+Q9BVA1+Q9BUF5); assay: Inhibition of tubulin polymerization (unknown origin) at 5 to 10 uM by cell-free tubulin polymerization assay; format: protein-complex assay
# [26] = target: T1, Tubulin (Homo sapiens); assay: Inhibition of tubulin polymerization (unknown origin) at 5 uM by cell-free tubulin polymerization assay; format: protein-complex assay
# [27] = system: HepG2; assay: Disruption of microtubule organization in human HepG2 cells at 100 nM after 12 hrs by DAPI staining-based fluorescence microscopy; format: functional, cell-based
# [28] = system: HepG2; assay: Disruption of microtubule organization in human HepG2 cells at 500 nM after 12 hrs by DAPI staining-based fluorescence microscopy; format: functional, cell-based
# [29] = target: T1, Tubulin (Homo sapiens); assay: Inhibition of tubulin polymerization in human SKOV3 cells assessed as increase in depolymerized (soluble) tubulin level at 0.1 to 1 uM after 24 hrs by Western blot analysis; format: cell-based; conditions: SK-OV-3
# [30] = target: T1, Tubulin (Homo sapiens); assay: Inhibition of tubulin polymerization in human SKOV3 cells assessed as increase in polymerized (insoluble) tubulin level at 0.1 to 1 uM after 24 hrs by Western blot analysis; format: cell-based; conditions: SK-OV-3
# [31] = target: T1, Tubulin (Homo sapiens); assay: Displacement of colchicine from tubulin (unknown origin) after 1 hr by fluorescence based competitive tubulin-binding assay; format: protein-complex assay
# [32] = system: SK-OV-3; assay: Induction of cell cycle arrest in human SKOV3 cells assessed as accumulation at G1 phase at 50 nM after 24 hrs by FCM analysis (reference value: 60.84%); format: functional
# [33] = system: SK-OV-3; assay: Induction of cell cycle arrest in human SKOV3 cells assessed as accumulation at G2 phase at 50 nM after 24 hrs by FCM analysis (reference value: 15.07%); format: functional
# [34] = system: SK-OV-3; assay: Induction of cell cycle arrest in human SKOV3 cells assessed as accumulation at S phase at 50 nM after 24 hrs by FCM analysis (reference value: 24.09%); format: functional
# [35] = system: SK-OV-3; assay: Induction of cell cycle arrest in human SKOV3 cells assessed as accumulation at G1 phase at 100 nM after 24 hrs by FCM analysis (reference value: 60.84%); format: functional
# [36] = system: SK-OV-3; assay: Induction of cell cycle arrest in human SKOV3 cells assessed as accumulation at G2 phase at 100 nM after 24 hrs by FCM analysis (reference value: 15.07%); format: functional
# [37] = system: SK-OV-3; assay: Induction of cell cycle arrest in human SKOV3 cells assessed as accumulation at S phase at 100 nM after 24 hrs by FCM analysis (reference value: 24.09%); format: functional
# [38] = system: SK-OV-3; assay: Induction of cell cycle arrest in human SKOV3 cells assessed as accumulation at G1 phase at 500 nM after 24 hrs by FCM analysis (reference value: 60.84%); format: functional
# [39] = system: SK-OV-3; assay: Induction of cell cycle arrest in human SKOV3 cells assessed as accumulation at G2 phase at 500 nM after 24 hrs by FCM analysis (reference value: 15.07%); format: functional
compound,measurement,setting,value
CCOc1ccc(-c2nc(NC(=O)[C@@H](N)C(C)C)sc2-c2cc(OC)c(OC)c(OC)c2)cc1.Cl,Activity,[1],3.97%
same,Activity,[2],Dose-dependent effect
same,Activity,[3],41.4%
same,Activity,[4],93.1%
same,Activity,[5],Active
same,inhibition,[6],Active
same,inhibition,[7],Active
same,inhibition,[8],Active
same,Activity,[9],Active
same,Activity,[10],Active
same,Activity,[11],Active
same,Activity,[12],Active
same,Activity,[13],Active
same,IC50,[14],390 nM
same,IC50,[15],200 nM
same,IC50,[16],420 nM
same,solubility,[17],> 10000 µM
same,Drug degradation,[18],12.77%
same,Drug degradation,[19],38.23%
same,inhibition in vivo at 20 mg/kg,[20],55%
same,Activity,[21],Active
same,inhibition in vivo at 10 mg/kg,[22],43.1%
same,Activity,[23],Active
same,t1/2,[24],2.93 h
same,inhibition,[25],Active
same,inhibition,[26],Active
same,Activity,[27],Active
same,Activity,[28],Active
same,inhibition,[29],Active
same,inhibition,[30],Active
same,inhibition,[31],Dose-dependent effect
same,Activity,[32],55.67%
same,Activity,[33],10.22%
same,Activity,[34],34.11%
same,Activity,[35],43.5%
same,Activity,[36],40.71%
same,Activity,[37],15.49%
same,Activity,[38],1.22%
same,Activity,[39],94.51%
CCOc1ccc(-c2nc(NC(=O)[C@@H](N)CCSC)sc2-c2cc(OC)c(OC)c(OC)c2)cc1,IC50,[14],520 nM
same,IC50,[15],> 2000 nM
same,IC50,[16],380 nM
CCOc1ccc(-c2nc(N)sc2-c2cc(OC)c(OC)c(OC)c2)cc1,IC50,[14],210 nM
same,IC50,[15],200 nM
same,IC50,[16],10 nM
same,solubility,[17],< 100 µM
CCOc1ccc(-c2nc(NC(=O)[C@H]3CCCN3)sc2-c2cc(OC)c(OC)c(OC)c2)cc1,IC50,[14],290 nM
same,IC50,[15],> 2000 nM
same,IC50,[16],510 nM
CCOc1ccc(-c2nc(NC(=O)[C@@H](N)Cc3ccccc3)sc2-c2cc(OC)c(OC)c(OC)c2)cc1.Cl,IC50,[14],90 nM
same,IC50,[15],> 2000 nM
same,IC50,[16],100 nM
same,solubility,[17],436 µM
same,Drug degradation,[18],45.85%
same,Drug degradation,[19],70.21%
same,inhibition in vivo at 20 mg/kg,[20],46.1%
same,Activity,[21],Active
CCOc1ccc(-c2nc(NC(=O)C(C)(C)N)sc2-c2cc(OC)c(OC)c(OC)c2)cc1,IC50,[14],600 nM
same,IC50,[15],> 2000 nM
same,IC50,[16],900 nM
CCOc1ccc(-c2nc(NC(=O)CN)sc2-c2cc(OC)c(OC)c(OC)c2)cc1.Cl,IC50,[14],260 nM
same,IC50,[15],210 nM
same,IC50,[16],200 nM
same,solubility,[17],> 10000 µM
same,Drug degradation,[18],17.43%
same,Drug degradation,[19],25.92%
same,inhibition in vivo at 20 mg/kg,[20],51.1%
same,Activity,[21],Active
same,inhibition in vivo at 10 mg/kg,[22],17.6%
same,Activity,[23],Active
CCOc1ccc(-c2nc(NC(=O)C(N)COCc3ccccc3)sc2-c2cc(OC)c(OC)c(OC)c2)cc1.Cl (centres undefined),IC50,[14],470 nM
same,IC50,[15],> 2000 nM
same,IC50,[16],300 nM
same,solubility,[17],259 µM
same,Drug degradation,[18],39.46%
same,Drug degradation,[19],42.56%
same,inhibition in vivo at 20 mg/kg,[20],44.8%
same,Activity,[21],Active
CCOc1ccc(-c2nc(NC(=O)[C@H](N)CC(C)C)sc2-c2cc(OC)c(OC)c(OC)c2)cc1.Cl,IC50,[14],140 nM
same,IC50,[15],190 nM
same,IC50,[16],90 nM
same,solubility,[17],554 µM
same,Drug degradation,[18],70.78%
same,Drug degradation,[19],91.1%
same,inhibition in vivo at 20 mg/kg,[20],52.6%
same,Activity,[21],Active
same,inhibition in vivo at 10 mg/kg,[22],33.1%
same,Activity,[23],Active
CCOc1ccc(-c2nc(NC(=O)[C@H](N)Cc3ccccc3)sc2-c2cc(OC)c(OC)c(OC)c2)cc1,IC50,[14],600 nM
same,IC50,[15],> 2000 nM
same,IC50,[16],> 2000 nM
CCOc1ccc(-c2nc(NC(=O)[C@H](C)N)sc2-c2cc(OC)c(OC)c(OC)c2)cc1.Cl,IC50,[14],430 nM
same,IC50,[15],210 nM
same,IC50,[16],460 nM
same,solubility,[17],> 10000 µM
same,Drug degradation,[18],93.03%
same,Drug degradation,[19],99.53%
same,inhibition in vivo at 20 mg/kg,[20],56.6%
same,Activity,[21],Active
same,inhibition in vivo at 10 mg/kg,[22],28.7%
same,Activity,[23],Active
CCOc1ccc(-c2nc(NC(=O)[C@@H]3CCCN3)sc2-c2cc(OC)c(OC)c(OC)c2)cc1.Cl,IC50,[14],110 nM
same,IC50,[15],> 2000 nM
same,IC50,[16],80 nM
same,solubility,[17],458 µM
same,Drug degradation,[18],12.54%
same,Drug degradation,[19],16.55%
same,inhibition in vivo at 20 mg/kg,[20],39.4%
same,Activity,[21],Active
